# A melting point compilation (Tetko et al.; mined from patent text by program, amines drawn as free bases though some values may be those of a salt)
# Residues, ends and D or L forms follow the SMILES beside them. *: point of attachment. Cbz = O=C(OCc1ccccc1)*
row,Structure (SMILES),melting point [°C]
1,CCCCCc1cnc(-c2ccc(C#N)cc2)nc1,69.4 to 70.8
2,CCCc1ncc(C=CC=CC(=O)OCC)s1,52
3,O=C1C(c2ccccc2)=C(c2ccccc2)C(=O)N1CC(=O)N1c2ccccc2N(Cc2ccccc2)C(=O)C2CCCC21 (stereo not given),207 to 208
4,CC(C)(C)OC(=O)c1ccc(C=NO)cc1,113 to 114
5,O=C(O)CCc1nc(C(=O)O)ccc1O,210 to 212
6,C=C1CCc2c(F)c(F)cc3c(=O)c(C(=O)O)cn1c23,220 to 232
7,CC(C)NC(=O)c1cnc(N2CCC(n3c(=O)oc4ccccc43)CC2)c(Cl)c1,162 to 168
8,O=C(O)c1ccc2oc(=O)n(Cc3ccc4[nH]c(=O)[nH]c4c3)c2c1,230 to 231
9,Cn1ccc2ccc(OCc3ccccc3)cc21,79
10,N=C(NC(c1ccccc1)c1ccccc1)N1CCOCC1,122 to 124
11,c1csc(-c2noc(COc3ccc(CCCn4ccnc4)cc3)n2)c1,118 to 119
12,COc1cccc(/C(=C/C=C/C(=O)Oc2ccc([N+](=O)[O-])cc2)c2ccccc2)c1,101 to 103
13,COc1ccc(CSc2nnc(-c3ccc4[nH]ncc4c3)o2)cc1C(F)(F)F,136 to 137
14,Cc1cccc(Cl)c1N(C)S(=O)(=O)c1nc2scc(C)n2n1,178 to 180
15,CC(C)(C)c1cc(C=O)c(O)cc1Cl,38 to 39
16,CCNC(=O)ON(C(C)=O)C(=O)NCC,84 to 86
17,CN1Cc2ccccc2C(OCC(O)Cn2ccnc2)c2c1nc1ccc(Br)cc1c2Cl (stereo not given),175 to 177
18,Cc1nn(C)c2ncc3c(c12)CC(C)CC3 (stereo not given),121 to 123
19,CC(C)(C)OC(=O)NCC(N)c1c[nH]c2ccc(Br)cc12 (stereo not given),151
20,O=C(O)c1cc2c(=O)n(-c3ccccc3)c3ccccc3n2c1,304 to 306
21,COc1ccc(CC(=O)O)c(C(C)=O)c1,115 to 116
22,CC(C)C(O)CN1N=C(c2ccc(Cl)cc2)CCC1=O (stereo not given),90 to 92
23,N=C(N)NCCCC(NC(=O)C1CCCN1C(=O)C(CCCCNC(=O)OCc1ccccc1)NC(=O)CNC(=O)OCc1ccccc1)C(=O)O (stereo not given) (Cbz-GK(Cbz)PR-OH; configuration not given here),175
24,CCCCCCn1c(CN2CCC[C@H]2C(=O)O)nc2cc(-c3ccccc3-c3nn[nH]n3)ccc21,150 to 155
25,Cc1nc(N2CCC(Cc3ccc(OC(F)F)cc3)C2=O)sc1C(=O)NCc1ccccc1 (stereo not given),132 to 133

row,Structure (SMILES),melting point [°C]
1,COC(=O)c1cc2ccc3[nH]ccc3c2[nH]1,183 to 184
2,O=C(O)Cc1ccccc1OCCC(c1ccccc1)(c1ccccc1)c1ccccc1,79 to 80
3,O=c1[nH]ncn1-c1ccc(I)cc1,258
4,CC(C)n1nc(-c2sc(NCCN3CCCCC3)nc2-c2ccccc2)ccc1=O,165 to 166
5,Cc1ccc(C(=O)C=CN(C)C)o1,123 to 125
6,O=C(O)c1ccc(C#CC2(O)CN3CCC2CC3)cc1 (stereo not given),288 to 290
7,NCC1CC(n2cc(-c3cccc(F)c3)c3c(N)ncnc32)C1 (stereo not given),101 to 102
8,CCCc1ncc(/C=C(\Cc2cccs2)C(=O)O)n1Cc1ccccc1Cl,200
9,O=C(O)C=Cc1ccc(-c2ccc3ncnc(Nc4ccc(OCc5cccc(F)c5)c(Cl)c4)c3c2)s1,252
10,CC(C)(C)C(NC(=O)c1ccc(Cl)cc1)Nc1c(Nc2cnc(F)c(Br)c2)c(=O)c1=O (stereo not given),249 to 252
11,O=S(=O)(c1ccc(Oc2ccccc2)cc1)c1cccc(S(=O)(=O)c2ccc(Oc3ccccc3)cc2)c1,70 to 75
12,Cc1cc(-c2cccc([N+](=O)[O-])c2)nnc1N(C)N,173 to 174
13,CC(C)CC(=O)OC1COC(OC(=O)CC(C)C)CO1 (stereo not given),104 to 105
14,COc1ccc(C(=O)Nc2ccccc2)cc1NCc1ccoc1,188 to 190
15,O=C(O)CCOCCCc1ccnc(-c2nc(=O)c3ccccc3s2)c1,154
16,O=C1N(CC2COCCO2)c2ccccc2C12COc1cc3c(cc12)OCCO3 (stereo not given),198 to 199
17,CS(=O)(=O)c1ccc(C2=C(c3ccc(F)c(F)c3)CCC2)cc1,114 to 115
18,COC(=O)C1=C(C)NC(C(=N)N)=C(C(=O)OC(C)C)C1c1ccccc1[N+](=O)[O-] (stereo not given),203
19,CC(C)(C)OC(=O)N1CC2CCCCC(C1)C2C=O (stereo not given),55 to 60
20,CC(=O)CCc1cccc(C)c1NC(=O)CC1c2ccccc2Oc2ccccc21,179 to 180
21,Cc1cc(C(=O)c2ccc(O)cc2)ccc1[N+](=O)[O-],146 to 148
22,CC(O)CN(CCc1ccc(Nc2ncc3c(n2)-c2ccccc2C(c2cccc(Br)c2)C3)cc1)Cc1ccccc1 (stereo not given),90 to 92
23,O=S1(=O)N=C(NC2CCN(Cc3ccccc3)C2)Nc2ccc(Cl)cc21 (stereo not given),208 to 210
24,Nc1nc2ccccc2n1-c1ccc(-c2ccco2)cc1,210 to 212
25,COc1ccc(Cl)cc1C(=O)NCCc1ccc(Br)cc1,104 to 109

row,Structure (SMILES),melting point [°C]
1,O=C(c1ccc(-c2ccnnc2)cc1)N1CCN(S(=O)(=O)c2cc3cc(Cl)ccc3[nH]2)CC1,170 to 172
2,CC1(C)CCN(C(=O)Nc2cccnc2)c2cc(C#N)ccc21,183 to 185
3,N#CCOc1cccc2onc(N)c12,133 to 136
4,COc1ccc(OC(=O)N2c3cc(Cl)ccc3NC(=O)[C@@H]2C)cc1,187 to 190
5,COc1ccc(C2Sc3cc(Oc4ccc(Cl)cc4)ccc3NC(=O)C2O)cc1 (stereo not given),243 to 245
6,COc1cc(OC)cc(C2(Cl)C(=O)Nc3ccc(Cl)cc32)c1 (stereo not given),157
7,COc1cc(OC)c(C(=O)CC(=O)c2cc(OC)c(OC)cc2OC)cc1OC,173 to 176
8,CC(C)(O)Cn1cnc2cnc3ccccc3c21,169 to 170
9,CCCCCCOc1ccc(NC(=O)N(C)c2cccc(-c3ccc(CC4SC(=O)NC4=O)cc3)c2)cc1 (stereo not given),146 to 148
10,CC1CCCN1Cc1ccc(N/C=C2\C(=O)NC(=O)c3ccc(I)cc32)cc1 (stereo not given),157 to 158
11,Nc1ccc(NC2CCCCC2)cc1,59 to 61
12,COc1ccc2c(c1)S(=O)(=O)c1nccnc1N2,293 to 294
13,Clc1cccc(Oc2nccnc2Cl)c1,83 to 85
14,COc1cccc(Oc2ccc([N+](=O)[O-])cc2C#N)c1,102 to 104
15,Cn1c(=O)c2[nH]cnc2n(CCCC(=O)O)c1=O,220 to 221
16,CC(OC(=O)Nc1ccc(-c2ncn(-c3ccc(C(F)(F)F)cc3)n2)cc1)c1ccc(C(F)(F)F)cc1 (stereo not given),156 to 158
17,CNC(=O)c1ccccc1Nc1nc(Nc2cccc3c2C(=O)N(C)CCN3C)ncc1Cl,204
18,O=c1oc2c(O)cccc2c(O)c1-c1ccccc1,220
19,COc1ccc(-c2c(CO)[nH]c3cc(OC)c(OC)cc23)cc1,169 to 170
20,Cn1cc(-c2ccccc2)c(=O)c(-c2cccc(Cl)c2)c1,172
21,O=C(O)[C@H](Cc1cccc(OC(F)(F)C(F)F)c1)[C@@H](O)c1ccc(Oc2ccccc2)cc1 (racemic),109 to 110
22,CCOC(=O)C1=C(C)N(C(C)=O)C(c2csc(C)n2)=NC1c1cccc(OC)c1 (stereo not given),114 to 116
23,CN(C)C(=O)N(C)C(=O)N1CCN(c2ccc(F)cc2)CC1,83 to 84
24,COc1cc(Cc2cnc(N)nc2N)c2c(c1OC)OCC=C2,232 to 234
25,Cc1ccc(CNC(=O)c2ccc3n2Cc2ccccc2N(C(=O)COc2ccc(Cl)cc2)C3)cc1,174 to 176

row,Structure (SMILES),melting point [°C]
1,O=C1Nc2cccnc2N(CC#CCN2CCCC2)c2ccccc21,153
2,COc1ccc(-c2nc(-c3ccccc3)sc2-c2ccc(OC)cc2)cc1,117 to 118
3,Brc1ccc(C2OCCO2)cc1,56 to 57
4,CCc1c(-c2ccc(OC)cc2)c2cc(C(C)=O)c3cc(OC)cc1n32,137 to 139
5,O=[N+]([O-])c1cc2nc(O)c(O)nc2c2[nH]ncc12,> 300
6,COc1ccc(-c2ccc(C(=O)Nc3ccc4cc(CN5CCCC5)cnc4c3F)cc2)cc1,217 to 220
7,CC(C)(C)NS(=O)(=O)c1c[nH]c2ccccc12,157 to 158
8,CCc1noc(-c2cn(-c3ccc([N+](=O)[O-])cn3)cn2)n1,228 to 229
9,CN(Cc1cc(C(F)(F)F)cc(C(F)(F)F)c1)C(=O)c1c(-c2ccc(F)cc2)c2ccsc2c(=O)n1C,196 to 197
10,N#Cc1c(N2CCN(CCCCCC(=O)N3Cc4ccccc4C3)CC2)cccc1C(F)(F)F,160
11,Cc1ccc2c(c1)C1=NNC(=O)CC1CS2 (stereo not given),217 to 219
12,O=C(CCCSc1ccccc1)N1C(=O)OCC1Cc1ccccc1 (stereo not given),84 to 85
13,Cn1nc(C(=O)NCc2ccc(Cl)cc2)c(=O)c2cc(CO)ccc21,203 to 205
14,Cc1cc(OC(F)(F)F)ccc1O,72
15,CCOP(=O)(OCC)Oc1cc(C(F)(F)F)nc(N(C)C)n1,22 to 24
16,Cc1cc(C)c(CC(=O)c2ccc(C(C)C)c(OS(N)(=O)=O)c2C(C)C)c(C)c1,159 to 161
17,CC(C)(C)OC(=O)N[C@@H](Cc1ccc(OCc2ccccc2)cc1)C(=O)NCCN1CCCCC1,54 to 61
18,CCCCNC(=O)C(C)CC(O)C1C[C@H](C)CCCCCCNc2cc(cc(OC)n2)C(=O)N1 (stereo not given in full),178 to 182
19,Cc1c(C)c2ccc(OCCCN3CCC(=NO)CC3)cc2oc1=O,198 to 200
20,Nc1nc(N)nc(-c2ccc(S(=O)c3ccccc3)cc2)n1 (stereo not given),253 to 255
21,CN1CCN(CCCOc2ccccc2Nc2nc(C#N)nc3c2ncn3C2CCCC2)CC1,136 to 138
22,CCN(CC)CC(O)CNC(=O)Cn1ncc(-c2ccccc2)c1-c1ccccc1 (stereo not given),70 to 72
23,Cn1cc(-c2cc(-c3cnc4ccccc4c3)ccn2)n(-c2ccc(C(C)(C)C#N)cc2)c1=O,180
24,CC(=O)Oc1ccc(-c2ccc3cc(OC(C)=O)ccc3c2)cc1,178 to 180
25,Cc1ccnc([N+](=O)[O-])c1O,87 to 88
